# Data: patent US20230265151A1, “GIP/GLP1 CO-AGONIST COMPOUNDS” (priority 2020, published 2023)
# Read-outs that look alike come from different tables or passages of the source. *1 amine or outer side, *2 acyl side, *3 side chain or, on linkers, in order; H or OH if unused. Where a SMILES comes first, the peptide text is derived from it. Side-chain parts run from the residue outwards. [ ]: non-standard residue; d: D form. The star is where a group is joined. αMePhe(2-F) = C[C@](N)(Cc1ccccc1F)C(=O)O; γGlu = O=C(O)[C@H](CCC(=O)[*:2])N[*:1]; αMeY = C[C@](N)(Cc1ccc(O)cc1)C(=O)O; αMeF = C[C@](N)(Cc1ccccc1)C(=O)O; 4Pal = N[C@@H](Cc1ccncc1)C(=O)O; αMeL = CC(C)C[C@](C)(N)C(=O)O; Lauroyl = CCCCCCCCCCCC(=O)*; Orn = NCCC[C@H](N)C(=O)O; AEEA = NCCOCCOCC(=O)O; Aib = CC(C)(N)C(=O)O
# Tests used:
# hGCGR = molecular target: T1, hGCGR (Homo sapiens, UniProt P47871); assay: Functional cAMP formation (HTRF) in HEK-293 clonal cells expressing hGCGR, 0.1% bovine casein, without or with 1.0% human serum albumin; assay type: cell-based
# T1 construct: expressed in transfected cells
# Method in brief: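 Cells were stimulated with peptide for 30 min at 37° C, then intracellular cAMP was measured by competitive HTRF (665/620 nm ratio) and converted to nM using a cAMP standard curve. Relative EC50 and Emax came from four-parameter logistic fits of percent maximal response against peptide concentration.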
# hGLP-1R = hGLP-1R (Homo sapiens, UniProt P43220); assay: Functional cAMP formation (HTRF) in HEK-293 clonal cells expressing hGLP-1R, 0.1% bovine casein, without or with 1.0% human serum albumin; assay type: cell-based; design: expressed in transfected cells; conditions: for EC50: cAMP, 0.1% bovine casein (no human serum albumin), geometric mean
# Experimental: After a 30-min incubation at 37° C., the resulting increase in intracellular cAMP is quantitatively determined using a CisBio cAMP Dynamic 2 HTRF Assay Kit (62AM4PEJ). Briefly, cAMP levels within the cell are detected by adding the cAMP-d2 conjugate in cell lysis buffer (10 µL) followed by the antibody anti-cAMP-Eu^3+-Cryptate, also in cell lysis buffer (10 µL). The resulting competitive assay is incubated for at least 60 min at room temperature, and then is detected using a PerkinElmer Envision® instrument with excitation at 320 nm and emission at 665 nm and 620 nm. Envision units (emission at 665 nm/620 nm* 10,000) are inversely proportional to the amount of cAMP present and are converted to nM cAMP per well us-ing a cAMP standard curve. […] A relative EC50 value and percent top (Emax) are derived by non-linear regression analysis using the percent maximal response vs. the concentration of peptide added, fitted to a four-parameter logistic equation.
# [1] = cAMP, 37° C., 0.1% bovine casein (no human serum albumin), geometric mean, read-out: hGCGR EC50, nM (SEM, n)
# [2] = HEK293, cAMP, 37° C., 0.1% bovine casein, percent of maximal response to GLP-1(7-36)NH2, arithmetic mean, read-out: hGLP-1R Emax, % ± SEM
# [3] = 37° C., read-out: hGLP-1R EC50, nM (SEM, n)
# [4] = 0.1% bovine casein and 1.0% human serum albumin, 37° C., geometric mean, read-out: hGCGR EC50, nM (SEM, n)
# [5] = hGCGR EC50, nM (SEM, n), cAMP, incubated at 37° C., 0.1% bovine casein (no human serum albumin), geometric mean
# [6] = HEK293, read-out: hGLP-1R Emax, % ± SEM, percent of maximal response to GLP-1(7-36)NH2, 37° C., 0.1% bovine casein, arithmetic mean
# hGLP-1R, sequence (P43220 24-463): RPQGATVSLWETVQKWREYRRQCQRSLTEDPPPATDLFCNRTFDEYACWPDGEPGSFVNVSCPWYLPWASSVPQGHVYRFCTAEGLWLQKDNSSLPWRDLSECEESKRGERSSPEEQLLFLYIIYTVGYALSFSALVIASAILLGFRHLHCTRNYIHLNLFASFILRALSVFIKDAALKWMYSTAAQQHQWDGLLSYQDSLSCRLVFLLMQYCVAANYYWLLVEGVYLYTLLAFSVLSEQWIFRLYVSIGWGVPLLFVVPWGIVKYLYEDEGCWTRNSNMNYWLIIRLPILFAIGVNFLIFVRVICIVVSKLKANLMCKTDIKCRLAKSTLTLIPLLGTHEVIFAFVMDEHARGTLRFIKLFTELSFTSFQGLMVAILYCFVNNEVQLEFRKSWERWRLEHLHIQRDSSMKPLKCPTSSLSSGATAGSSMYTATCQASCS
# T1 sequence (P47871 26-477): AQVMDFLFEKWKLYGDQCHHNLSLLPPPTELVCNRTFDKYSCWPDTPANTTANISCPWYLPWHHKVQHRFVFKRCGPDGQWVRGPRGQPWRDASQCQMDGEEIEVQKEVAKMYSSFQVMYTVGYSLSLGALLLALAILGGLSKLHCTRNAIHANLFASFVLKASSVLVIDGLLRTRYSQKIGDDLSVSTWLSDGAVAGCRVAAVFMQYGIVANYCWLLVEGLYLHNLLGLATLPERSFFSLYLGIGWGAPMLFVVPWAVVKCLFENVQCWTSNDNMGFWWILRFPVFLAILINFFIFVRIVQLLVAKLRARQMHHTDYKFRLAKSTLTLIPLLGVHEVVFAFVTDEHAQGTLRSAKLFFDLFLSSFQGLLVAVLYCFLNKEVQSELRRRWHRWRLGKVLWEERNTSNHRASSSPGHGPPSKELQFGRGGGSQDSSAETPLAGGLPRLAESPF
Structure (SMILES),EC50 (hGCGR; [1]) [nM],Emax (hGLP-1R; [2]) [%],EC50 (hGLP-1R; [3]) [nM],EC50 (hGCGR; [4]) [nM],EC50 (hGCGR; [5]) [nM],Emax (hGLP-1R; [6]) [%],also measured
CCCCCCCCCCCC(=O)N[C@@H](CCC(=O)NCCOCCOCC(=O)NCCOCCOCC(=O)NCCOCCOCC(=O)NCCCC[C@H](NC(=O)[C@H](CO)NC(=O)[C@@H]1CCCN1C(=O)[C@@H]1CCCN1C(=O)[C@@H]1CCCN1C(=O)[C@H](C)NC(=O)CNC(=O)[C@H](CO)NC(=O)[C@H](CO)NC(=O)[C@@H]1CCCN1C(=O)CNC(=O)CNC(=O)[C@H](CCC(=O)O)NC(=O)[C@@H](NC(=O)[C@H](CC(C)C)NC(=O)[C@](C)(Cc1ccc(O)cc1)NC(=O)[C@@H](CCC(=O)O)NC(=O)[C@@H](NC(=O)[C@](C)(Cc1ccccc1)NC(=O)[C@H](CCC(=O)O)NC(=O)C(C)(C)NC(=O)[C@H](CCC(N)=O)NC(=O)[C@H](C)NC(=O)[C@H](CCCCNC(=O)COCCOCCNC(=O)COCCOCCNC(=O)COCCOCCNC(=O)CC[C@H](NC(=O)CCCCCCCCCCC)C(=O)O)NC(=O)[C@H](CCCN)NC(=O)[C@H](CC(=O)O)NC(=O)[C@H](CC(C)C)NC(=O)[C@](C)(CC(C)C)NC(=O)[C@@H](NC(=O)C(C)(C)NC(=O)[C@H](Cc1ccncc1)NC(=O)[C@H](CC(=O)O)NC(=O)[C@H](CO)NC(=O)[C@@H](NC(=O)[C@](C)(Cc1ccccc1F)NC(=O)[C@@H](NC(=O)CNC(=O)[C@H](CCC(=O)O)NC(=O)C(C)(C)NC(=O)[C@@H](N)Cc1ccc(O)cc1)[C@@H](C)O)[C@@H](C)O)[C@@H](C)CC)[C@@H](C)CC)[C@@H](C)CC)C(N)=O)C(=O)O [Example 439] (H-Y[Aib]EGT[αMePhe(2-F)]TSD[4Pal][Aib]I[αMeL]LD[Orn]K([AEEA-AEEA-AEEA-γGlu-Lauroyl])AQ[Aib]E[αMeF]I[dE][αMeY]LIEGGPSSGAPPPSK([AEEA-AEEA-AEEA-γGlu-Lauroyl])-NH2),> 9950,95.7,0.11,,,,"EC50 (hGCGR; cAMP, 37° C., 0.1% bovine casein and 1.0% human serum albumin, geometric mean (SEM, n), read-out: hGCGR EC50, nM (SEM, n)): > 9950 nM; Emax (hGLP-1R; HEK293, cAMP, 37° C., 0.1% bovine casein and 1.0% human serum albumin, percent of maximal response to GLP-1(7-36)NH2, read-out: hGLP-1R Emax, % ± SEM): 97%"
CC[C@H](C)[C@H](NC(=O)[C@H](CC(C)C)NC(=O)[C@](C)(Cc1ccc(O)cc1)NC(=O)[C@@H](CCC(=O)O)NC(=O)[C@@H](NC(=O)[C@H](Cc1ccccc1)NC(=O)[C@H](CCC(=O)O)NC(=O)C(C)(C)NC(=O)[C@H](CCC(N)=O)NC(=O)[C@H](C)NC(=O)[C@H](CCCCNC(=O)COCCOCCNC(=O)COCCOCCNC(=O)CC[C@H](NC(=O)CCCCCCCCCCCCC(=O)O)C(=O)O)NC(=O)[C@H](CCCN)NC(=O)[C@H](CC(=O)O)NC(=O)[C@H](CC(C)C)NC(=O)[C@](C)(CC(C)C)NC(=O)[C@@H](NC(=O)[C@H](CO)NC(=O)C1(NC(=O)[C@H](CC(=O)O)NC(=O)[C@H](CO)NC(=O)[C@@H](NC(=O)[C@](C)(Cc2ccccc2F)NC(=O)[C@@H](NC(=O)CNC(=O)[C@H](CCC(=O)O)NC(=O)C(C)(C)NC(=O)[C@@H](N)Cc2ccc(O)cc2)[C@@H](C)O)[C@@H](C)O)CCCC1)[C@@H](C)CC)[C@@H](C)CC)C(=O)N[C@@H](CCC(=O)O)C(=O)NCC(=O)NCC(=O)N[C@@H](CCCCNC(=O)COCCOCCNC(=O)COCCOCCNC(=O)CC[C@H](NC(=O)CCCCCCCCCCCCC(=O)O)C(=O)O)C(=O)N[C@@H](CO)C(=O)N[C@@H](CO)C(=O)NCC(=O)N[C@@H](C)C(=O)N1CCC[C@H]1C(=O)N1CCC[C@H]1C(=O)N1CCC[C@H]1C(=O)N[C@@H](CO)C(N)=O [Example 53],,,,> 9950,,,"EC50 (hGCGR; cAMP, incubated at 37° C., 0.1% bovine casein (no human serum albumin), geometric mean, read-out: hGCGR EC50, nM (SEM, n)): > 9950 nM; Emax (hGLP-1R; HEK293, 0.1% bovine casein and 1.0% human serum albumin, 37° C., percent of maximal response to GLP-1(7-36)NH2, read-out: hGLP-1R Emax, % ± SEM): 89.3 ± 6.12%; Emax (hGLP-1R; HEK293, percent of maximal response to GLP-1(7-36)NH2, 37° C., 0.1% bovine casein, arithmetic mean, read-out: hGLP-1R Emax, % ± SEM): 89.9 ± 9.41%; EC50 (hGLP-1R; incubated at 37° C., read-out: hGLP-1R EC50, nM (SEM, n)): 0.18 nM"
CC[C@H](C)[C@H](NC(=O)[C@H](CC(C)C)NC(=O)[C@](C)(Cc1ccc(O)cc1)NC(=O)[C@H](CCCCNC(=O)[C@@H](N)CCCCNC(=O)CC[C@H](NC(=O)CCCCCCCCCCCCC(=O)O)C(=O)O)NC(=O)[C@@H](NC(=O)[C@H](Cc1ccccc1)NC(=O)[C@H](CCC(=O)O)NC(=O)C(C)(C)NC(=O)[C@H](CCC(N)=O)NC(=O)[C@H](C)NC(=O)[C@H](CCCCNC(=O)[C@@H](N)CCCCNC(=O)CC[C@H](NC(=O)CCCCCCCCCCCCC(=O)O)C(=O)O)NC(=O)[C@H](CCCN)NC(=O)[C@H](CC(=O)O)NC(=O)[C@H](CC(C)C)NC(=O)[C@](C)(CC(C)C)NC(=O)[C@@H](NC(=O)C(C)(C)NC(=O)[C@@H](NC(=O)[C@H](CC(=O)O)NC(=O)[C@H](CO)NC(=O)[C@@H](NC(=O)[C@](C)(Cc1ccccc1F)NC(=O)[C@@H](NC(=O)CNC(=O)[C@H](CCC(=O)O)NC(=O)C(C)(C)NC(=O)[C@@H](N)Cc1ccc(O)cc1)[C@@H](C)O)[C@@H](C)O)C(C)C)[C@@H](C)CC)[C@@H](C)CC)C(=O)N[C@@H](CCC(=O)O)C(=O)NCC(=O)NCC(=O)N1CCC[C@H]1C(=O)N[C@@H](CO)C(=O)N[C@@H](CO)C(=O)NCC(=O)N[C@@H](C)C(=O)N1CCC[C@H]1C(=O)N1CCC[C@H]1C(=O)N1CCC[C@H]1C(=O)N[C@@H](CO)C(N)=O [Example 167],,,,,> 9950,91.4 ± 3.21,"EC50 (hGLP-1R; hGLP-1R EC50, nM (SEM, n), incubated at 37° C.): 0.217 nM"
CC[C@H](C)[C@H](NC(=O)[C@H](CC(C)C)NC(=O)[C@](C)(Cc1ccc(O)cc1)NC(=O)[C@@H](CCC(=O)O)NC(=O)[C@@H](NC(=O)[C@H](Cc1ccccc1)NC(=O)[C@H](CCCCNC(=O)COCCOCCNC(=O)COCCOCCNC(=O)CC[C@H](NC(=O)CCCCCCCCCOc1ccc(C(=O)O)cc1)C(=O)O)NC(=O)C(C)(C)NC(=O)[C@H](CCC(N)=O)NC(=O)[C@H](C)NC(=O)[C@H](CCCCNC(=O)COCCOCCNC(=O)COCCOCCNC(=O)CC[C@H](NC(=O)CCCCCCCCCOc1ccc(C(=O)O)cc1)C(=O)O)NC(=O)[C@H](CCCN)NC(=O)[C@H](CC(=O)O)NC(=O)[C@H](CC(C)C)NC(=O)[C@](C)(CC(C)C)NC(=O)[C@@H](NC(=O)[C@H](CO)NC(=O)[C@H](Cc1ccncc1)NC(=O)[C@H](CC(=O)O)NC(=O)[C@H](CO)NC(=O)[C@@H](NC(=O)[C@](C)(Cc1ccccc1F)NC(=O)[C@@H](NC(=O)CNC(=O)[C@H](CCC(=O)O)NC(=O)C(C)(C)NC(=O)[C@@H](N)Cc1ccc(O)cc1)[C@@H](C)O)[C@@H](C)O)[C@@H](C)CC)[C@@H](C)CC)C(=O)N[C@@H](CCC(=O)O)C(=O)NCC(=O)NCC(=O)N1CCC[C@H]1C(=O)N[C@@H](CO)C(=O)N[C@@H](CO)C(=O)NCC(=O)N[C@@H](C)C(=O)N1CCC[C@H]1C(=O)N1CCC[C@H]1C(=O)N1CCC[C@H]1C(=O)N[C@@H](CO)C(N)=O [Example 127],,,,,> 9950,98.5,
CC[C@H](C)[C@H](NC(=O)[C@H](CC(C)C)NC(=O)[C@](C)(Cc1ccc(O)cc1)NC(=O)[C@@H](CCC(=O)O)NC(=O)[C@@H](NC(=O)[C@H](Cc1ccccc1)NC(=O)[C@H](CCC(=O)O)NC(=O)C(C)(C)NC(=O)[C@H](CCC(N)=O)NC(=O)[C@H](C)NC(=O)[C@H](CCCCNC(=O)COCCOCCNC(=O)COCCOCCNC(=O)CC[C@H](NC(=O)CCCCCCCCCCCCC(=O)O)C(=O)O)NC(=O)[C@H](CCCN)NC(=O)[C@H](CC(=O)O)NC(=O)[C@H](CC(C)C)NC(=O)[C@](C)(CC(C)C)NC(=O)[C@@H](NC(=O)[C@H](CO)NC(=O)[C@H](Cc1ccc2ccccc2c1)NC(=O)[C@H](CC(=O)O)NC(=O)[C@H](CO)NC(=O)[C@@H](NC(=O)[C@](C)(Cc1ccccc1F)NC(=O)[C@@H](NC(=O)CNC(=O)[C@H](CCC(=O)O)NC(=O)C(C)(C)NC(=O)[C@@H](N)Cc1ccc(O)cc1)[C@@H](C)O)[C@@H](C)O)[C@@H](C)CC)[C@@H](C)CC)C(=O)N[C@@H](CCCCNC(=O)COCCOCCNC(=O)COCCOCCNC(=O)CC[C@H](NC(=O)CCCCCCCCCCCCC(=O)O)C(=O)O)C(=O)NCC(=O)NCC(=O)N1CCC[C@H]1C(=O)N[C@@H](CO)C(=O)N[C@@H](CO)C(=O)NCC(=O)N[C@@H](C)C(=O)N1CCC[C@H]1C(=O)N1CCC[C@H]1C(=O)N1CCC[C@H]1C(=O)N[C@@H](CO)C(N)=O [Example 250],> 9950,114,0.414,> 9950,,,
